Source: publication PMC11600510 (Journal of Chemical Information and Modeling, 2024)
“Also recorded” adds a separate entry of the source.

What was measured:
E. coli WP2 uvrA strain = assay: Microbial mutagenicity assay (Ames test)
SARS-CoV-2 [1] = type: cell-based
[2] = Metabolic stability in human liver microsomes; type: in vitro ADME
Text: CKP-25 was studied for its metabolic stability. In particular, the metabolic stability of a compound can be interpreted using several approaches, as it can be ranked in terms of its intrinsic clearance (CLint) and in vitro t1/2 values or based on parent structure loss during metabolic reactions[96],[97] CLin describes the maximum activity of liver (microsomal proteins or hepatocytes) toward a compound not influenced by other physiological determinants, such as hepatic blood flow and drug binding within the blood matrix and in vitro t1/2 expresses the time for 50% disappearance of the compound. Parent structure loss was our option for metabolic stability data interpretation of CKP-25. Parent structure loss is classified as very slow (<5%), slow (5–19%), moderate (20–50%), fast (50–80%) or very fast (>80%). Such categories have been defined according to set criteria, namely, high metabolism (t1/2 value of <30 min), moderate metabolism (30 min < t1/2 value of <60 min) and low metabolism (t1/2 value of >60 min).[98]−[100]
Metabolic stability was evaluated using pooled human liver microsomes at a 0.5 mg/mL concentration. […] Each test-compound was assessed at a concentration of 1 μM. […] The depletion of test compounds was then profiled, and the residual percentage compared to time zero was determined. The readouts were recorded using a Lionheart FX system from Agilent BioTek (Winooski, VT, USA).

SARS-CoV-2 [3] = assay: microbe, parasite or virus in culture; type: cell-based
[4] = target: T1, Spike RBD/ACE2 (19–615) interaction (Severe acute respiratory syndrome coronavirus 2, UniProt P0DTC2); assay: cell-based; type: cell-based, SARS-CoV-2; conditions: HEK-293T, 48 h, read-out: suppression of Spike RBD/ACE2 (19–615) interaction
T1 construct: S protein RBD (aa residues 319–541) of SARS-CoV-2; expressed in transfected cells; host or cells: HEK293T

CYP450 system = assay: Isozyme-specific CYP450 study, overall statement; type: in vitro ADME, human; conditions: 1 μM
Procedure: For this, the activity of CYP1A2, CYP2A6, CYP2B6, CYP2C9, CYP2C19, CYP2D6, and CYP3A4 was assessed after the administration of CKP-25 at 1 μM to determine (a) the oxidative (CYP-mediated) metabolic stability profile in question and (b) the enzyme metabolizing isoforms responsible (the test system consists of recombinant human CYP450 and CYP450 reductase; cytochrome b5 may also be present). Herein, no concentration-dependent effects were reported. […] No product inhibition or mechanism-based inactivation of the CYP450 isoenzymes in question was obtained. […]
Human cytochrome P450 (CYP450) isoenzymes were expressed in Baculosomes obtained from Thermo Fisher Scientific (Waltham, MA, USA). […] Compound CKP-25 was evaluated at a concentration of 1 μM according to our established standard operating procedures and protocols as described previously.[127],[128] The enzymatic activity of various CYP450 isoforms (CYP1A2, CYP2A6, CYP2B6, CYP2C9, CYP2C19, CYP2D6, and CYP3A4) was measured, considering the kinetic model for each isoform. […] Upon the addition of the fluorescent substrate, signal monitoring was performed immediately (within 2 min) using appropriate excitation and emission wavelengths, recorded by an Agilent BioTek Lionheart FX (Winooski, VT, USA). CYP450 inhibition (%) was calculated based on the reaction rates (fluorescence intensity changes per unit time). […]

## COc1cccc2c1ncn2Cc1ccc2ccccc2c1 [CKP-25, 4-Methoxy-1-(naphthalen-2-ylmethyl)-1H-benzo[d]imidazole]
E. coli WP2 uvrA strain; 2.5 μg/plate, +S9
  mean revertants: 13
E. coli WP2 uvrA strain; 2.5 μg/plate, –S9
  mean revertants: 7.5
E. coli WP2 uvrA strain; 25 μg/plate, +S9
  mean revertants: 19
E. coli WP2 uvrA strain; 25 μg/plate, –S9
  mean revertants: 12.5
E. coli WP2 uvrA strain; 50 μg/plate, +S9
  mean revertants: 15
E. coli WP2 uvrA strain; 50 μg/plate, –S9
  mean revertants: 13
E. coli WP2 uvrA strain; 100 μg/plate, +S9
  mean revertants: 13
E. coli WP2 uvrA strain; 100 μg/plate, –S9
  mean revertants: 11.5
E. coli WP2 uvrA strain; 200 μg/plate, +S9
  mean revertants: 16
E. coli WP2 uvrA strain; 200 μg/plate, –S9
  mean revertants: 5.5
E. coli WP2 uvrA strain; 12.5 to 200 μg/plate, with and without S9-mix
  mutagenic activity (in words): does not elicit mutagenic effect; also recorded: does not exhibit mutagenic activity
SARS-CoV-2 [1]
  reduction of the viral titter (TCID50): approximately 90%
[2]
  substrate depletion (in words): slow substrate depletion
SARS-CoV-2 [3]
  effect on the cytopathic effect of SARS-CoV-2 (in words): consistently reduced the cytopathic effect
SARS-CoV-2 [3]; Severe acute respiratory syndrome coronavirus 2, Vero C1008, 48 h, read-out: IC50, SARS-CoV-2 CPE
  IC50: 3.5 µM
[4]
  inhibition at 25 µM: 34%
CYP450 system
  inhibition of the CYP450 system (in words): weak inhibitor
  solubility issues in the CYP450 assay: No solubility issues
